Data taken from patent US8952024B2, “Herbicidal pyrimidone derivatives” (E I du Pont de Nemours and Company, priority 2009, dated 2015).

Tests used:
Assay type in all cases: in vivo
[1] = tested on: barnyardgrass (Echinochloa crus-galli); assay: Test A pre-/postemergence plant response
Procedure, shortened: (§1)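 Each species was treated preemergence via directed soil spray and postemergence at the one- to two-leaf stage, with compounds formulated in a non-phytotoxic solvent plus surfactant. Visual injury relative to untreated controls was rated after about ten days on a 0–100 scale.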

[2] = tested on: corn (Zea mays); assay: Test A pre-/postemergence plant response
Procedure, shortened: as §1

[3] = tested on: giant foxtail (Setaria faberii); assay: Test A pre-/postemergence plant response
Procedure, shortened: as §1

[4] = tested on: large crabgrass (Digitaria sanguinalis); assay: Test A pre-/postemergence plant response
Procedure, shortened: as §1

[5] = tested on: morningglory (Ipomoea spp.); assay: Test A pre-/postemergence plant response
Procedure, shortened: as §1

[6] = tested on: pigweed (Amaranthus retroflexus); assay: Test A pre-/postemergence plant response
Procedure, shortened: as §1

[7] = tested on: velvetleaf (Abutilon theophrasti); assay: Test A pre-/postemergence plant response
Procedure, shortened: as §1

[8] = tested on: wheat (Triticum aestivum); assay: Test A pre-/postemergence plant response
Procedure, shortened: as §1

[9] = tested on: barnyardgrass (Echinochloa crus-galli); assay: Test B flooded paddy test; conditions: for Plant response rating, Flood, Barnyardgrass: 250 g ai/ha, flooded paddy test, visual rating on 0 to 100 scale (0 no effect, 100 complete control) after 13 to 15 days; for Plant response rating, Barnyardgrass: Flood (flooded paddy test), 13 to 15 days
Procedure, shortened: (§2)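 Each compound is added to standing floodwater (3 cm above soil, maintained) in pots of 2-leaf-stage plants; greenhouse exposure lasts 13–15 d before visual comparison with controls on a 0–100 control scale.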

[10] = tested on: ducksalad (Heteranthera limosa); assay: Test B flooded paddy test; conditions: for Plant response rating, Flood, Ducksalad: 250 g ai/ha, flooded paddy test, visual rating on 0 to 100 scale (0 no effect, 100 complete control) after 13 to 15 days; for Plant response rating, Ducksalad: Flood (flooded paddy test), 13 to 15 days
Procedure, shortened: as §2

[11] = tested on: rice (Oryza sativa); assay: Test B flooded paddy test; conditions: for Plant response rating, Flood, Rice: 250 g ai/ha, flooded paddy test, visual rating on 0 to 100 scale (0 no effect, 100 complete control) after 13 to 15 days; for Plant response rating, Rice: Flood (flooded paddy test), 13 to 15 days
Procedure, shortened: as §2

[12] = tested on: umbrella sedge (Cyperus difformis); assay: Test B flooded paddy test; conditions: for Plant response rating, Flood, Sedge, Umbrella: 250 g ai/ha, flooded paddy test, visual rating on 0 to 100 scale (0 no effect, 100 complete control) after 13 to 15 days; for Plant response rating, Sedge, Umbrella: Flood (flooded paddy test), 13 to 15 days
Procedure, shortened: as §2

[13] = Postemergence, 125 g ai/ha, visual injury, 0 to 100 scale (0 no effect, 100 complete control), approx. ten days
[14] = Postemergence, 500 g ai/ha, 0 to 100 scale, 0 = no effect, 100 = complete control, approx. ten days
[15] = Preemergence, 125 g ai/ha, 0 to 100 scale, 0 = no effect, 100 = complete control
[16] = Preemergence, 500 g ai/ha, visual injury, 0 to 100 scale (0 no effect, 100 complete control), approx. ten days
[17] = 62 g ai/ha, scale 0 to 100, 0 is no effect, 100 is complete control
[18] = 31 g ai/ha, scale of 0 to 100 where 0 is no effect and 100 is complete control
[19] = 125 g ai/ha, scale 0 to 100, 0 is no effect, 100 is complete control

SMILES: O=C1CCCC(O)=C1C(=O)c1cnc(-c2ccccc2)n(-c2ccc(F)cc2)c1=O [Compound 24]
- Barnyardgrass plant response rating [1, 13]: 10
- Plant response rating, Barnyardgrass [1, 14]: 70
- Plant response rating, Barnyardgrass [1, 15]: 10
- Plant response rating, Barnyardgrass [1, 16]: 90
- Corn plant response rating [2, 13]: 0
- Plant response rating, Corn [2, 14]: 30
- Plant response rating, Corn [2, 15]: 0
- Plant response rating, Corn [2, 16]: 0
- Foxtail, Giant plant response rating [3, 13]: 70
- Plant response rating, Foxtail, Giant [3, 14]: 90
- Plant response rating, Foxtail, Giant [3, 15]: 40
- Plant response rating, Foxtail, Giant [3, 16]: 100
- Crabgrass, Large plant response rating [4, 13]: 70
- Plant response rating, Crabgrass, Large [4, 14]: 90
- Plant response rating, Crabgrass, Large [4, 15]: 30
- Plant response rating, Crabgrass, Large [4, 16]: 100
- Morningglory plant response rating [5, 13]: 70
- Plant response rating, Morningglory [5, 14]: 100
- Plant response rating, Morningglory [5, 15]: 20
- Plant response rating, Morningglory [5, 16]: 80
- Pigweed plant response rating [6, 13]: 90
- Plant response rating, Pigweed [6, 14]: 100
- Plant response rating, Pigweed [6, 15]: 90
- Plant response rating, Pigweed [6, 16]: 100
- Velvetleaf plant response rating [7, 13]: 100
- Plant response rating, Velvetleaf [7, 14]: 100
- Plant response rating, Velvetleaf [7, 15]: 90
- Plant response rating, Velvetleaf [7, 16]: 100
- Wheat plant response rating [8, 13]: 0
- Plant response rating, Wheat [8, 14]: 30
- Plant response rating, Wheat [8, 15]: 0
- Plant response rating, Wheat [8, 16]: 20
- Plant response rating, Flood, Barnyardgrass [9]: 20
- Plant response rating, Barnyardgrass [9, 17]: 0
- Plant response rating, Flood, Ducksalad [10]: 75
- Plant response rating, Ducksalad [10, 17]: 20
- Plant response rating, Flood, Rice [11]: 0
- Plant response rating, Rice [11, 17]: 0
- Plant response rating, Flood, Sedge, Umbrella [12]: 75
- Plant response rating, Sedge, Umbrella [12, 17]: 0

SMILES: Cc1cccc(-n2c(-c3ccccc3)ncc(C(=O)C3=C(O)CCCC3=O)c2=O)c1C [Compound 27]
- Barnyardgrass plant response rating [1, 13]: 50
- Plant response rating, Barnyardgrass [1, 14]: 90
- Plant response rating, Barnyardgrass [1, 15]: 10
- Plant response rating, Barnyardgrass [1, 16]: 80
- Corn plant response rating [2, 13]: 0
- Plant response rating, Corn [2, 14]: 30
- Plant response rating, Corn [2, 15]: 0
- Plant response rating, Corn [2, 16]: 0
- Foxtail, Giant plant response rating [3, 13]: 80
- Plant response rating, Foxtail, Giant [3, 14]: 90
- Plant response rating, Foxtail, Giant [3, 15]: 30
- Plant response rating, Foxtail, Giant [3, 16]: 90
- Crabgrass, Large plant response rating [4, 13]: 70
- Plant response rating, Crabgrass, Large [4, 14]: 100
- Plant response rating, Crabgrass, Large [4, 15]: 30
- Plant response rating, Crabgrass, Large [4, 16]: 90
- Morningglory plant response rating [5, 13]: 60
- Plant response rating, Morningglory [5, 14]: 70
- Plant response rating, Morningglory [5, 15]: 20
- Plant response rating, Morningglory [5, 16]: 80
- Pigweed plant response rating [6, 13]: 100
- Plant response rating, Pigweed [6, 14]: 100
- Plant response rating, Pigweed [6, 15]: 70
- Plant response rating, Pigweed [6, 16]: 90
- Velvetleaf plant response rating [7, 13]: 100
- Plant response rating, Velvetleaf [7, 14]: 100
- Plant response rating, Velvetleaf [7, 15]: 60
- Plant response rating, Velvetleaf [7, 16]: 100
- Wheat plant response rating [8, 13]: 0
- Plant response rating, Wheat [8, 14]: 0
- Plant response rating, Wheat [8, 15]: 0
- Plant response rating, Wheat [8, 16]: 0
- Plant response rating, Flood, Barnyardgrass [9]: 40
- Plant response rating, Barnyardgrass [9, 17]: 0
- Plant response rating, Flood, Ducksalad [10]: 85
- Plant response rating, Ducksalad [10, 17]: 75
- Plant response rating, Flood, Rice [11]: 0
- Plant response rating, Rice [11, 17]: 0
- Plant response rating, Flood, Sedge, Umbrella [12]: 85
- Plant response rating, Sedge, Umbrella [12, 17]: 75

SMILES: Cc1ccc(C)c(-n2c(-c3ccccc3)ncc(C(=O)C3=C(O)CCCC3=O)c2=O)c1 [Compound 29]
- Barnyardgrass plant response rating [1, 13]: 20
- Plant response rating, Barnyardgrass [1, 14]: 90
- Plant response rating, Barnyardgrass [1, 15]: 0
- Plant response rating, Barnyardgrass [1, 16]: 100
- Corn plant response rating [2, 13]: 0
- Plant response rating, Corn [2, 14]: 10
- Plant response rating, Corn [2, 15]: 0
- Plant response rating, Corn [2, 16]: 0
- Foxtail, Giant plant response rating [3, 13]: 70
- Plant response rating, Foxtail, Giant [3, 14]: 90
- Plant response rating, Foxtail, Giant [3, 15]: 30
- Plant response rating, Foxtail, Giant [3, 16]: 100
- Crabgrass, Large plant response rating [4, 13]: 70
- Plant response rating, Crabgrass, Large [4, 14]: 90
- Plant response rating, Crabgrass, Large [4, 15]: 20
- Plant response rating, Crabgrass, Large [4, 16]: 100
- Morningglory plant response rating [5, 13]: 60
- Plant response rating, Morningglory [5, 14]: 90
- Plant response rating, Morningglory [5, 15]: 40
- Plant response rating, Morningglory [5, 16]: 80
- Pigweed plant response rating [6, 13]: 80
- Plant response rating, Pigweed [6, 14]: 100
- Plant response rating, Pigweed [6, 15]: 50
- Plant response rating, Pigweed [6, 16]: 100
- Velvetleaf plant response rating [7, 13]: 100
- Plant response rating, Velvetleaf [7, 14]: 100
- Plant response rating, Velvetleaf [7, 15]: 20
- Plant response rating, Velvetleaf [7, 16]: 100
- Wheat plant response rating [8, 13]: 0
- Plant response rating, Wheat [8, 14]: 0
- Plant response rating, Wheat [8, 15]: 0
- Plant response rating, Wheat [8, 16]: 0
- Plant response rating, Flood, Barnyardgrass [9]: 30
- Plant response rating, Barnyardgrass [9, 17]: 0
- Plant response rating, Flood, Ducksalad [10]: 85
- Plant response rating, Ducksalad [10, 17]: 70
- Plant response rating, Flood, Rice [11]: 0
- Plant response rating, Rice [11, 17]: 0
- Plant response rating, Flood, Sedge, Umbrella [12]: 80
- Plant response rating, Sedge, Umbrella [12, 17]: 70

SMILES: O=C1CCCC(O)=C1C(=O)c1cnc(-c2cccc(Cl)c2)n(-c2ccccc2)c1=O [Compound 34]
- Barnyardgrass plant response rating [1, 13]: 90
- Plant response rating, Barnyardgrass [1, 14]: 100
- Plant response rating, Barnyardgrass [1, 15]: 10
- Plant response rating, Barnyardgrass [1, 16]: 100
- Corn plant response rating [2, 13]: 0
- Plant response rating, Corn [2, 14]: 30
- Plant response rating, Corn [2, 15]: 0
- Plant response rating, Corn [2, 16]: 0
- Foxtail, Giant plant response rating [3, 13]: 90
- Plant response rating, Foxtail, Giant [3, 14]: 100
- Plant response rating, Foxtail, Giant [3, 15]: 60
- Plant response rating, Foxtail, Giant [3, 16]: 100
- Crabgrass, Large plant response rating [4, 13]: 90
- Plant response rating, Crabgrass, Large [4, 14]: 100
- Plant response rating, Crabgrass, Large [4, 15]: 90
- Plant response rating, Crabgrass, Large [4, 16]: 100
- Morningglory plant response rating [5, 13]: 80
- Plant response rating, Morningglory [5, 14]: 100
- Plant response rating, Morningglory [5, 15]: 10
- Plant response rating, Morningglory [5, 16]: 60
- Pigweed plant response rating [6, 13]: 100
- Plant response rating, Pigweed [6, 14]: 100
- Plant response rating, Pigweed [6, 15]: 90
- Plant response rating, Pigweed [6, 16]: 100
- Velvetleaf plant response rating [7, 13]: 100
- Plant response rating, Velvetleaf [7, 14]: 100
- Plant response rating, Velvetleaf [7, 15]: 50
- Plant response rating, Velvetleaf [7, 16]: 100
- Wheat plant response rating [8, 13]: 0
- Plant response rating, Wheat [8, 14]: 30
- Plant response rating, Wheat [8, 15]: 0
- Plant response rating, Wheat [8, 16]: 0
- Plant response rating, Flood, Barnyardgrass [9]: 0
- Plant response rating, Barnyardgrass [9, 18]: 0
- Plant response rating, Barnyardgrass [9, 17]: 0
- Plant response rating, Barnyardgrass [9, 19]: 0
- Plant response rating, Flood, Ducksalad [10]: 65
- Plant response rating, Ducksalad [10, 18]: 0
- Plant response rating, Ducksalad [10, 17]: 0
- Plant response rating, Ducksalad [10, 19]: 30
- Plant response rating, Flood, Rice [11]: 0
- Plant response rating, Rice [11, 18]: 0
- Plant response rating, Rice [11, 17]: 0
- Plant response rating, Rice [11, 19]: 0
- Plant response rating, Flood, Sedge, Umbrella [12]: 40
- Plant response rating, Sedge, Umbrella [12, 18]: 0
- Plant response rating, Sedge, Umbrella [12, 17]: 0
- Plant response rating, Sedge, Umbrella [12, 19]: 0
